In patent US20220168392A1 (priority 2019, published 2022):
Square brackets hold non-standard residues; d marks the D form. * marks the point of attachment. 2Nal = N[C@@H](Cc1ccc2ccccc2c1)C(=O)O; Propionyl = CCC(=O)*; Sar = CNCC(=O)O

Test system: Dog
Assay: Maximum platelet elevation relative to baseline in normal healthy dogs, single escalating doses
Type: in vivo
Parameters: key to pharmacodynamics (PD) effect class of the dose (beneficial effects on survival): **: large pharmacodynamics (PD) effect; *: modest effect
Conditions: for Dog Max Platelet Ratio: TOX6985; for maximum platelet elevation: canine
Excerpt: The ratio of the maximum platelet counts to the baseline platelet counts following single escalating doses of RWJ-800088 to mice, rats, dogs, rhesus monkeys and human healthy volunteers is shown in Table 5. The dose required to achieve a 2-3.5-fold elevation in humans is ˜100-fold lower compared to mice, ˜1,000-fold lower compared to rats and >10,000-fold lower compared to canines and NHPs. […] The species differences in potency has been described for other TPO mimetics in the literature and is attributed to differences in receptor affinity (Erickson-Miller C L, et al. Discovery and characterization of a selective, nonpeptidyl thrombopoietin receptor agonist. Exp. Hematol. 2005; 33:85-93). […] It is discovered that the dose of RWJ-800088 that produces a survival benefit and protects against vascular and organ injury is the dose that produces a 2-4 fold elevation of platelets (Table 6).

Substance: methoxypolyethyleneglycol20000-propionyl-L-Isoleucyl-L-Glutamyl-Glycyl-L-Prolyl-L-Threonyl-L-Leucyl-L-Arginyl-L-Glutaminyl-L-2-Naphthylalanyl-L-Leucyl-L-Alanyl-L-Alanyl-L-Arginyl-Sarcosyl-Ne-(methoxypolyethyleneglycol20000-propionyl-L-Isoleucyl-L-Glutamyl-Glycyl-L-Prolyl-L-Threonyl-L-Leucyl-L-Arginyl-L-Glutaminyl-L-2-Naphthylalanyl-L-Leucyl-L-Alanyl-L-Alanyl-L-Arginyl-Sarcosyl-)-Lysinamide ({mPEG 20 kDa-Propionyl}-IEGPTLRQ[2Nal]LAAR[Sar]K-NH2; also: dimer: second identical mPEG-propionyl chain on Lys Nε of C-terminal lysinamide) [RWJ-800088]
- Average of the Maximum Platelet Elevation/Baseline Platelet Counts (Dog, dose 10000 μg/kg): 1.7
- pharmacodynamics (PD) effect class of the dose (beneficial effects on survival) (Dog, dose 10000 μg/kg): *
- Dog Max Platelet Ratio (dose 300 μg/kg): 1.0 ± 0.3
- Dog Max Platelet Ratio (dose 3000 μg/kg): 1.4 ± 0.5
- Dog Max Platelet Ratio (dose 10000 μg/kg): 1.7 ± 0.5
- maximum platelet elevation: ~7.7 fold
- maximum platelet elevation (listed as TPOm): ~1.7 fold
